# Tests used:
# [1] = Critical micelle concentration (CMC) in water; assay type: physicochemical
# Source text: According to this embodiment, the salt form is selected by measuring its CMC in water by methods known in the art, for example, by the use of a surface tensiometer. […] The CMC provides a measure of the surface activity of the particular drug salt.
# [2] = system: skin of hairless guinea pigs; assay: Urinary excretion kinetics / skin depot of fluoxetine; assay type: in vivo, hairless guinea pig
# Source text: (§1) Skin sites on hairless guinea pigs were lightly washed.
# [3] = cited from earlier work
# [4] = system: skin of hairless guinea pigs; assay: Paroxetine gels skin irritation at equivalent flux; assay type: in vivo, hairless guinea pig; details: FIG. 8
# Source text: as §1
# All paroxetine gels contained paroxetine base, 40% ethanol, 35% propylene glycol, water, and 5% HPMC. Placebo gels were identical with water replacing the paroxetine. Paroxetine acetate gels contained paroxetine base, acetic acid, water, and 2% HEC. […] All paroxetine gels contained approximately 28 μCi ^3 H paroxetine per ml.
structure (smiles),measurement,setting,value
CN(C)CCCN1c2ccccc2Sc2ccc(Cl)cc21 [chlorpromazine acetate],CMC,[1],0.02 M
CNCCC(Oc1ccc(C(F)(F)F)cc1)c1ccccc1 (centres unmarked) [fluoxetine acetate],CMC,[1],0.05 M
same,skin depot (urinary excretion),[2]; acidified with excess acetic acid to pH 5,the skin depot is eliminated
same,kinetics of elimination (urinary excretion),"[2]; acidified with excess acetic acid to pH 5, compared with intravenous administration",close to that observed following intravenous administration of the drug
same,skin depot (urinary excretion),"[2]; fluoxetine acetate, pH 6.5",the skin depot is reduced but is still present
"CNCCC(Oc1ccc(C(F)(F)F)cc1)c1ccccc1 (centres unmarked) [fluoxetine base, fluoxetine]",pKa,[3],9.7
same,skin depot (urinary excretion),[2]; fluoxetine base,a skin depot is observed
Fc1ccc([C@@H]2CCNC[C@H]2COc2ccc3c(c2)OCO3)cc1 [paroxetine acetate],irritation vs paroxetine base gels at equivalent flux,[4],reduced

# Reference: patent US6203817A (priority 1998, dated 2001)
